Measured values taken from patent publication US20240150809A1, “Method of Evaluating the Biofilm Detachment Efficacy of Compositions” (Colgate-Palmolive Company, priority 2021, published 2024).

Test system: S. gordonii biofilms
Test: adapted spinning-disc rheometry analysis of biofilm detachment
Type: cell-based, Streptococcus gordonii
Details: for biofilm momentum coefficient (CB): 200-300 rad·s^−1, vs untreated; for area under the curve (AUC) of the torque-angular velocity curves: whole analyzed range
Method: Spinning-disc rheology was adapted to analyze biofilm detachment from surfaces. S. gordonii biofilms were grown on 3D printed coupons for 5 days. The model for the coupons was designed in SolidWorks (Dassault Systèmes). Coupons were 3D printed using a Prime 30 PolyJet 3D printer (Objet, Stratasys) using RGD720 photopolymer for the printing material (Stratasys). The coupon was printed at a resolution of 0.0008 inches. The coupon surface was sanded used P300 sandpaper to create a rougher surface for bacteria to attach. Prior to inoculating, coupons were sterilized in 70% ethanol.
S. gordonii wild type strain DL1 was used in this study. Overnight cultures were prepared by inoculating 10 mL of brain heart infusion broth (Oxoid; BHI) with a colony of S. gordonii and incubated statically overnight at 37° C. with 5% CO2. Sterile 40 mm coupons were placed in a Petri dish containing 40 mL BHI, supplemented with 0.5% sucrose. Coupons were inoculated with 400 μL of overnight culture. Biofilms were incubated in a humidified chamber at 37° C. with 5% CO2, on an orbital shaker at 150 rpm. Every 24 h the media was replenished. […]
Biofilms were analyzed on a Discovery Hybrid Rheometer-2 (HD-2) (TA Instruments). A 15×15 cm square clear acrylic container filled with 2.8 L reverse osmosis water was transferred onto the Peltier plate. Biofilm-coated coupons were immersed and attached to the rheometer shaft using a custom-made adapter probe. The gap distance between the bottom of the container and the coupon was set to 3.5 cm (FIG. 1). Immersed coupons were spun at an angular velocity (ω) range of 0.1-300 rad·s^−1, incrementing the speed over 360 seconds, and the resulting torque (T), a measurement of resistance to rotation, was measured across this velocity range.
Data was collected using TRIOS v5 software (TA instruments), with raw data exported in excel. Data was transformed, and calculations performed in excel. Data was visualized and statistical analysis performed in GraphPad Prism v8 (GraphPad Software). All statistical comparisons were performed using a Student's t-test, with p<0.05 indicating significance.
To more easily observe the changes in torque associated with biofilm detachment, the torque-angular velocity data was linearized and transformed. The data was linearized by taking the square root of the torque. The running slope of 5 data points of the linearized data was determined. […] Therefore, final transformed data is presented as the running slope of the linearized data against angular velocity, starting at 20 rad·s^−1.
Five day S. gordonii biofilms were treated with either PBS (untreated control) or 4% arginine for 2 min. […] After treatment, Biofilms were analyzed on a Discovery Hybrid Rheometer-2 (HD-2) (TA Instruments) as described above. Four biological replicates were analyzed, each with 2-4 technical replicates (total N=11).
To quantify the mechanical differences between arginine treated and untreated S. gordonii biofilms, the biofilm momentum coefficient (CB) across the turbulent regimes of 200-300 rad·s^−1 was determined according to equation 1: […]
To quantify these differences, the angular velocity where the first reduction in torque occurred was converted to the shear stress acting on the outer edge of the coupon, according to equation 3.
Next, the biofilm disrupting effect of arginine was compared with that of glycine and lysine by the spinning-disc rheometry assay to determine if biofilm disrupting effect is a general property of amino acids, or specific to arginine.

[1] = 5 day S. gordonii biofilms, 4% arginine for 2 min, vs PBS untreated control
[2] = 5 day S. gordonii biofilms, 4% arginine for 2 min, vs untreated
[3] = Seven day S. gordonii biofilms, 4% arginine or 0.23M glycine or lysine for 2 min, equation 3, vs untreated
[4] = Seven day S. gordonii biofilms, 4% arginine or 0.23M glycine or lysine for 2 min, vs untreated

Structure (SMILES)	torque across angular velocity range (5 day S. gordonii biofilms, 4% arginine for 2 min, 0.1-300 rad·s^−1, vs untreated)	biofilm momentum coefficient (CB) (5 day S. gordonii biofilms, 4% arginine for 2 min)	shear stress at the first reduction in torque (initiation of detachment) (5 day S. gordonii biofilms, 4% arginine for 2 min, equation 3, vs untreated)	angular velocity at which changes in torque associated with biofilm detachment events occurred (5 day S. gordonii biofilms, 4% arginine for 2 min, transformed analysis, vs untreated)	amount of remaining biofilm attached to the coupon after rheometry analysis [1]	biofilm morphology (macroscopic) [1]	changes in torque in transformed data (running slope of torque^1/2 vs angular velocity) [2]	area under the curve (AUC) of the torque-angular velocity curves [2]	biofilm momentum coefficient (CB) (Seven day S. gordonii biofilms, 4% arginine or 0.23M glycine or lysine for 2 min)	shear stress at the first reduction in torque (detachment shear stress) [3]	torque (torque-displacement profile) [4]	area under the curve (AUC) of the torque-angular velocity curves [4]
N=C(N)NCCC[C@H](N)C(=O)O [arginine]	reduced torque	no statistical difference	significantly lower shear stresses	lower angular velocity ranges	did not appear to affect	did not appear to affect	greater changes in torque	significantly reduced AUC	significantly lower	significantly lower shear stresses	reduced torque	significantly reduced AUC
NCC(=O)O [glycine, reference compound]										no significant difference		no significant differences
NCCCC[C@H](N)C(=O)O [lysine, reference compound]										no significant difference		no significant differences
